From patent US10065941B2, “Aminotriazine derivative and pharmaceutical composition comprising the same” (Shionogi & Co., Ltd., priority 2013, dated 2018)

Molecular target: human P2X3 receptor (Homo sapiens (Human), UniProt P56373)
Assay: Evaluation of human P2X3 receptor inhibitory activity (Test Example 1)
Format: cell-based
Conditions: C6BU-1 cell transfected with human P2X3 receptor gene, FLIPR 384
How it was run: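 C6BU-1 cells stably expressing human P2X3, loaded with 4 μM Fluo-3-AM 1 h at 37 °C, preincubated 5 min with test compound, then stimulated with 150 nM ATP solution (stock, pre-dispense) and monitored by FLIPR for 4 min. IC50 derived from maximum fluorescence ratio (post-ATP peak over baseline).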

human P2X3 receptor, sequence (P56373 whole entry): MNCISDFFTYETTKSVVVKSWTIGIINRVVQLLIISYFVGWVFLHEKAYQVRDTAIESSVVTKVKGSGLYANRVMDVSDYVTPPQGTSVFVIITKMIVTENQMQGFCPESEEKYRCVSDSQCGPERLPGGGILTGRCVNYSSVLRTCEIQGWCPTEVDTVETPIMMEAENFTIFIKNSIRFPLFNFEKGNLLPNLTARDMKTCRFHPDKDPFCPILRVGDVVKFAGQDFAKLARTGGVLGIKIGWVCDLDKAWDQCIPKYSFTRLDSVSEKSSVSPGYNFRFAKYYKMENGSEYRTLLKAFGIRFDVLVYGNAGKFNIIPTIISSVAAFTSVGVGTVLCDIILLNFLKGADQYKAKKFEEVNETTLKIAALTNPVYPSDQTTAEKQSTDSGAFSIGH

Row | Compound | IC50 [nM]
1 | C[C@@H](C(=O)O)[C@H](C)n1c(=O)[nH]/c(=N\c2ccc(Oc3cnccn3)c(F)c2)n(Cc2ccc(Cl)cc2)c1=O [Compound R-125] | 7
2 | CC(C)(Cn1c(=O)[nH]/c(=N\c2ccc(Oc3cc(O)nc(F)c3)cc2)n(Cc2ccc(Cl)cc2)c1=O)C(=O)O [Compound R-126] | 10
3 | CCc1[nH]c2ccc(/N=c3\[nH]c(=O)n([C@@H](C)[C@@H](C)C(=O)OC)c(=O)n3Cc3ccc(Cl)cc3)cc2c1C [Compound R-127] | 90
4 | CCc1[nH]c2ccc(/N=c3\[nH]c(=O)n([C@@H](C)[C@@H](C)C(=O)O)c(=O)n3Cc3ccc(Cl)cc3)cc2c1C [Compound R-128] | 11
5 | COC(=O)C(C)(C)Cn1c(=O)[nH]/c(=N\c2ccc(Oc3cnccn3)c(C)c2)n(Cc2ccc(Cl)cc2)c1=O [Compound R-129] | 7
6 | Cc1cc(/N=c2\[nH]c(=O)n(C[C@H](C)C(=O)O)c(=O)n2Cc2ccc(Cl)cc2)ccc1Oc1cnccn1 [Compound R-130] | 9
7 | Cc1cc(/N=c2\[nH]c(=O)n(CC(C)(C)C(=O)O)c(=O)n2Cc2ccc(Cl)cc2)ccc1Oc1cnccn1 [Compound R-131] | 9
8 | COC(=O)[C@@H](C)Cn1c(=O)[nH]/c(=N\c2ccc(Oc3ncc(C)s3)cc2)n(Cc2ccc(Cl)cc2)c1=O [Compound R-132] | 10
9 | Cc1cnc(Oc2ccc(/N=c3\[nH]c(=O)n(C[C@H](C)C(=O)O)c(=O)n3Cc3ccc(Cl)cc3)cc2)s1 [Compound R-133] | 6
10 | COC(=O)[C@@H](C)Cn1c(=O)[nH]/c(=N\c2ccc(Oc3ncns3)cc2)n(Cc2ccc(Cl)cc2)c1=O [Compound R-134] | 5
11 | COC(=O)[C@@H](C)Cn1c(=O)[nH]/c(=N\c2ccc(Oc3nc(C)ns3)cc2)n(Cc2ccc(Cl)cc2)c1=O [Compound R-135] | 5
12 | COC(=O)C(C)(C)Cn1c(=O)[nH]/c(=N\c2ccc(Oc3ncns3)cc2)n(Cc2ccc(Cl)cc2)c1=O [Compound R-136] | 6
13 | COC(=O)C(C)(C)Cn1c(=O)[nH]/c(=N\c2ccc(Oc3nc(C)ns3)cc2)n(Cc2ccc(Cl)cc2)c1=O [Compound R-137] | 6
14 | COC(=O)[C@@H](C)Cn1c(=O)[nH]/c(=N\c2ccc(N3CCCCC3)c(C)c2)n(Cc2ccc(Cl)cc2)c1=O [Compound R-138] | 78
15 | COC(=O)C(C)(C)Cn1c(=O)[nH]/c(=N\c2ccc(N3CCCCC3)c(C)c2)n(Cc2ccc(Cl)cc2)c1=O [Compound R-139] | 119
16 | COC(=O)[C@@H](C)Cn1c(=O)[nH]/c(=N\c2ccc(N3CCCCC3)c(F)c2)n(Cc2ccc(Cl)cc2)c1=O [Compound R-140] | 37
17 | COC(=O)C(C)(C)Cn1c(=O)[nH]/c(=N\c2ccc(N3CCCCC3)c(F)c2)n(Cc2ccc(Cl)cc2)c1=O [Compound R-141] | 47
18 | Cc1cc(/N=c2\[nH]c(=O)n(C[C@H](C)C(=O)O)c(=O)n2Cc2ccc(Cl)cc2)ccc1N1CCCCC1 [Compound R-142] | 69
19 | Cc1cc(/N=c2\[nH]c(=O)n(CC(C)(C)C(=O)O)c(=O)n2Cc2ccc(Cl)cc2)ccc1N1CCCCC1 [Compound R-143] | 97
20 | C[C@@H](Cn1c(=O)[nH]/c(=N\c2ccc(Oc3nc4ccccc4o3)cc2)n(Cc2ccc(Cl)cc2)c1=O)C(=O)O [Compound R-144] | 5

Row | Compound | IC50 [nM]
21 | C[C@@H](Cn1c(=O)[nH]/c(=N\c2ccc(Oc3nc(C(F)(F)F)ns3)cc2)n(Cc2ccc(Cl)cc2)c1=O)C(=O)O [Compound R-145] | 11
22 | C[C@@H](Cn1c(=O)[nH]/c(=N\c2ccc(N3CCCCC3)c(F)c2)n(Cc2ccc(Cl)cc2)c1=O)C(=O)O [Compound R-146] | 33
23 | CC(C)(Cn1c(=O)[nH]/c(=N\c2ccc(N3CCCCC3)c(F)c2)n(Cc2ccc(Cl)cc2)c1=O)C(=O)O [Compound R-147] | 51
24 | COC(=O)C(C)(C)Cn1c(=O)[nH]/c(=N\c2ccc(Oc3cccnn3)cc2)n(Cc2ccc(Cl)cc2)c1=O [Compound R-148] | 5
25 | COC(=O)C(C)(C)Cn1c(=O)[nH]/c(=N\c2ccc(Oc3ncc(C)s3)cc2)n(Cc2ccc(Cl)cc2)c1=O [Compound R-149] | 12
26 | COC(=O)[C@H](C)[C@H](C)n1c(=O)[nH]/c(=N\c2ccc(Oc3ccnc(Cl)c3)cc2)n(Cc2ccc(Cl)cc2)c1=O [Compound R-150] | 18
27 | CC(C)(Cn1c(=O)[nH]/c(=N\c2ccc(Oc3cccnn3)cc2)n(Cc2ccc(Cl)cc2)c1=O)C(=O)O [Compound R-151] | 11
28 | COC(=O)[C@@H](C)Cn1c(=O)[nH]/c(=N\c2ccc(Oc3ccc(CO)nc3)cc2)n(Cc2ccc(Cl)cc2)c1=O [Compound R-152] | 5
29 | Cc1cnc(Oc2ccc(/N=c3\[nH]c(=O)n(CC(C)(C)C(=O)O)c(=O)n3Cc3ccc(Cl)cc3)cc2)s1 [Compound R-153] | 8
30 | C[C@@H](Cn1c(=O)[nH]/c(=N\c2ccc(Oc3ccc(CO)nc3)cc2)n(Cc2ccc(Cl)cc2)c1=O)C(=O)O [Compound R-155] | 10
31 | COC(=O)[C@H](C)[C@H](C)n1c(=O)[nH]/c(=N\c2ccc(Oc3cc(F)nc(F)c3)cc2)n(Cc2ccc(Cl)cc2)c1=O [Compound R-156] | 35
32 | C[C@@H](C(=O)O)[C@H](C)n1c(=O)[nH]/c(=N\c2ccc(Oc3cc(F)nc(F)c3)cc2)n(Cc2ccc(Cl)cc2)c1=O [Compound R-157] | 6
33 | COC(=O)[C@H](C)[C@H](C)n1c(=O)[nH]/c(=N\c2ccc(Oc3cnccn3)c(C)c2)n(Cc2ccc(Cl)cc2)c1=O [Compound R-158] | 12
34 | COC(=O)[C@H](C)[C@H](C)n1c(=O)[nH]/c(=N\c2ccc(Oc3cnc(Cl)cn3)cc2)n(Cc2ccc(Cl)cc2)c1=O [Compound R-159] | 18
35 | Cc1nsc(Oc2ccc(/N=c3\[nH]c(=O)n(C[C@H](C)C(=O)O)c(=O)n3Cc3ccc(Cl)cc3)cc2)n1 [Compound R-160] | 8
36 | Cc1cc(/N=c2\[nH]c(=O)n([C@@H](C)[C@@H](C)C(=O)O)c(=O)n2Cc2ccc(Cl)cc2)ccc1Oc1cnccn1 [Compound R-161] | 10
37 | C[C@@H](C(=O)O)[C@H](C)n1c(=O)[nH]/c(=N\c2ccc(Oc3cnc(Cl)cn3)cc2)n(Cc2ccc(Cl)cc2)c1=O [Compound R-162] | 6
38 | CC(C)(Cn1c(=O)[nH]/c(=N\c2ccc(Oc3ncns3)cc2)n(Cc2ccc(Cl)cc2)c1=O)C(=O)O [Compound R-163] | 14
39 | C[C@@H](Cn1c(=O)[nH]/c(=N\c2ccc(Oc3ncccn3)c(F)c2)n(Cc2ccc(Cl)cc2)c1=O)C(=O)O [Compound R-164] | 10
40 | CC(C)(Cn1c(=O)[nH]/c(=N\c2ccc(Oc3ncccn3)c(F)c2)n(Cc2ccc(Cl)cc2)c1=O)C(=O)O [Compound R-165] | 14

Row | Compound | IC50 [nM]
41 | CCn1c(=O)[nH]/c(=N\c2ccc(Oc3ccc(Cl)nc3C#N)cc2)n(Cc2ccc(Cl)cc2)c1=O [Compound R-166] | 48
42 | COC(=O)[C@H](C)[C@H](C)n1c(=O)[nH]/c(=N\c2ccc(Oc3cnccn3)cc2)n(Cc2ccc(Cl)cc2)c1=O [Compound R-167] | 11
43 | C[C@@H](C(=O)O)[C@H](C)n1c(=O)[nH]/c(=N\c2ccc(Oc3cnccn3)cc2)n(Cc2ccc(Cl)cc2)c1=O [Compound R-168] | 17
44 | CCn1c(=O)[nH]/c(=N\c2ccc(Oc3ccc(Cl)nc3C(=O)O)cc2)n(Cc2ccc(Cl)cc2)c1=O [Compound R-169] | 304
45 | O=c1[nH]c(=O)n(Cc2ccc(Cl)cc2)/c(=N/c2ccc(Oc3ccc(F)cn3)cc2)[nH]1 [Compound R-170] | 193
46 | CCOC(=O)C[C@H](O)Cn1c(=O)[nH]/c(=N\c2ccc(OC(C)C)c(Cl)c2)n(Cc2ccc(Cl)cc2)c1=O [Compound R-171] | 33
47 | CCOC(=O)C[C@H](O)Cn1c(=O)[nH]/c(=N\c2ccc3oc(CC)c(C)c3c2)n(Cc2ccc(Cl)cc2)c1=O [Compound R-172] | 33
48 | CCc1oc2ccc(/N=c3\[nH]c(=O)[nH]c(=O)n3Cc3ccc(Cl)cc3)cc2c1C [Compound R-173] | 376
49 | COC(=O)[C@@H](C)Cn1c(=O)[nH]/c(=N\c2ccc(Oc3ccc(C)nn3)c(F)c2)n(Cc2ccc(Cl)cc2)c1=O [Compound R-174] | 10
50 | COC(=O)C(C)(C)Cn1c(=O)[nH]/c(=N\c2ccc(Oc3ccc(C)nn3)c(F)c2)n(Cc2ccc(Cl)cc2)c1=O [Compound R-175] | 19
51 | CC(C)(Cn1c(=O)[nH]/c(=N\c2ccc(Oc3cnc(C(F)(F)F)cn3)cc2)n(Cc2ccc(Cl)cc2)c1=O)C(=O)O [Compound R-176] | 7
52 | COc1cc(Oc2ccc(/N=c3\[nH]c(=O)n([C@@H](C)[C@@H](C)C(=O)O)c(=O)n3Cc3ccc(Cl)cc3)cc2)cc(F)n1 [Compound R-177] | 5
53 | CCc1oc2ccc(/N=c3\[nH]c(=O)n(C[C@@H](O)CC(=O)O)c(=O)n3Cc3ccc(Cl)cc3)cc2c1C [Compound R-178] | 45
54 | CC(C)Oc1ccc(/N=c2\[nH]c(=O)n(C[C@@H](O)CC(=O)O)c(=O)n2Cc2ccc(Cl)cc2)cc1Cl [Compound R-179] | 56
55 | Cc1ccc(Oc2ccc(/N=c3\[nH]c(=O)n(C[C@H](C)C(=O)O)c(=O)n3Cc3ccc(Cl)cc3)cc2F)nn1 [Compound R-180] | 7
56 | Cc1ccc(Oc2ccc(/N=c3\[nH]c(=O)n(CC(C)(C)C(=O)O)c(=O)n3Cc3ccc(Cl)cc3)cc2F)nn1 [Compound R-181] | 7
57 | COC(=O)[C@H](C)[C@H](C)n1c(=O)[nH]/c(=N\c2ccc(Oc3ncc(C)s3)cc2)n(Cc2ccc(Cl)cc2)c1=O [Compound R-182] | 26
58 | Cc1cnc(Oc2ccc(/N=c3\[nH]c(=O)n([C@@H](C)[C@@H](C)C(=O)O)c(=O)n3Cc3ccc(Cl)cc3)cc2)s1 [Compound R-183] | 7
59 | COC(=O)[C@@H](C)Cn1c(=O)[nH]/c(=N\c2ccc(Oc3cncc(C)c3)cc2)n(Cc2ccc(Cl)cc2)c1=O [Compound R-184] | 10
60 | Cc1cncc(Oc2ccc(/N=c3\[nH]c(=O)n(C[C@H](C)C(=O)O)c(=O)n3Cc3ccc(Cl)cc3)cc2)c1 [Compound R-185] | 12
